The subject of one assay is MEC monolayers. In words: Immunofluorescence of MEC monolayers for VE-cadherin and F-actin. It counts as cell-based, human. The settings on record: 200 ng/ml Ang2, increasing concentrations of AXT107. As to the method: The jaggedness of these junctions is related to the structure of actin within the cell.
Glass-bottomed, 96-well plates with half well size were coated with 10 μg/ml FN1 for two hours at 37° C. The FN1 solution was then removed by aspiration and the plate seeded with 4×10^3 MECs in EGM-2MV media. After twenty-four hours, the cells were washed once with dPBS containing Ca^2+ and Mg^2+ to remove dead cells and the cells were allowed to grow for an additional twenty-four hours. For three-hour duration treatments (i.e., VE-cadherin), cells were washed twice with dPBS containing Ca^2+ and Mg^2+ and serum starved in EBM-2 for ninety minutes. The media was then removed and the cells were treated for three hours with 100 μl of EBM-2 media containing 200 ng/ml Ang2 or PBS and varying concentrations of AXT107 or DMSO. For fifteen minute-treated samples (i.e., phospho-Tie2), the cells were serum starved in EBM-2 media for 165 minutes, incubated for ninety minutes with varying concentrations of AXT107 or DMSO in EBM-2, and finally stimulated for fifteen minutes with 200 ng/ml Ang2 or PBS supplemented with peptide to retain the same concentrations. These times were chosen so that both treatment procedures would be completed at the same time. The cells were then washed twice with cold dPBS containing Ca^2+ and Mg^2+ and fixed in 10% neutral buffered formalin for fifteen minutes. […]

A further assay has as its system Akt. In words: Western blot of MEC lysates: Akt phosphorylation. The format is cell-based, human. Conditions: Ang2 and AXT107 treatment. On the procedure: To investigate the effects of the integrin inhibitor AXT107 on Tie2 signaling, confluent monolayers of microvascular endothelial cells (MECs) on fibronectin-coated dishes were treated with various concentrations of AXT107 followed by exposure to the Tie2 ligands Ang1 or Ang2.
Human dermal microvascular endothelial cells (Lonza) were maintained at 37° C. and 5% CO2 in EBM-2MV medium (Lonza) and used between passages two through seven. Where applicable, cells were serum starved in EBM-2 medium (Lonza) with no supplements. For FITC-Dextran permeability assays phenol red-free media were used to avoid auto-fluorescence. […]
For Ang1/2 signaling investigations, cell culture dishes (10 cm diameter) were coated with 5 μg/ml fibronectin (FN1; Sigma-Aldrich, St. Louis, Mo.) for two hours at 37° C. […] Specific proteins were identified by Western blot, using the following primary antibodies: Cell Signaling—phospho-Tie2 (Y992) (Cat #: 4221), Tie2 (Cat #: 7403), phospho-Stat3 (Y705) (Cat #: 4113), Stat3 (Cat #: 4904), phospho-Akt (S473) (Cat #: 4058), Akt (Cat #: 9272), phospho-p44/42 MAPK (T202/Y204) (Cat #: 4370), p44/42 MAPK (Cat #: 4695); BD Transduction Laboratories—β1 integrin (Cat #: 610467); Millipore—α5 integrin (Cat #: AB1928) and detected with HRP-conjugated goat anti-rabbit and sheep anti-mouse secondary antibodies (GE healthcare).
(Immunoblotting shows a protein as a band on a membrane.)

Another assay concerns phospho-Tie2 (Y992). Kind of assay: Immunofluorescence of MEC monolayers for phospho-Tie2 (Y992). It counts as cell-based, human. Conditions: 200 ng/ml Ang2 for fifteen minutes plus AXT107. As to the method: As such, subsequent experiments evaluate the effects of AXT107 at cell-cell junctions in MEC monolayers using immunofluorescence microscopy rather than at the EC-ECM interface.
Human dermal microvascular endothelial cells (Lonza) were maintained at 37° C. and 5% CO2 in EBM-2MV medium (Lonza) and used between passages two through seven. Where applicable, cells were serum starved in EBM-2 medium (Lonza) with no supplements. For FITC-Dextran permeability assays phenol red-free media were used to avoid auto-fluorescence. AXT107 were manufactured at New England Peptide by […], lyophilized, and dissolved in 100% DMSO.
Glass-bottomed, 96-well plates with half well size were coated with 10 μg/ml FN1 for two hours at 37° C. The FN1 solution was then removed by aspiration and the plate seeded with 4×10^3 MECs in EGM-2MV media. After twenty-four hours, the cells were washed once with dPBS containing Ca^2+ and Mg^2+ to remove dead cells and the cells were allowed to grow for an additional twenty-four hours. For three-hour duration treatments (i.e., VE-cadherin), cells were washed twice with dPBS containing Ca^2+ and Mg^2+ and serum starved in EBM-2 for ninety minutes. The media was then removed and the cells were treated for three hours with 100 μl of EBM-2 media containing 200 ng/ml Ang2 or PBS and varying concentrations of AXT107 or DMSO. […]

The target in assay [1] is T1, α5 and β1 integrin subunits (Homo sapiens, UniProt P05556+P08648).
T1 construct: host or cells: human dermal microvascular endothelial cells (MECs)
T1 sequence (P08648 42-894 limits assumed): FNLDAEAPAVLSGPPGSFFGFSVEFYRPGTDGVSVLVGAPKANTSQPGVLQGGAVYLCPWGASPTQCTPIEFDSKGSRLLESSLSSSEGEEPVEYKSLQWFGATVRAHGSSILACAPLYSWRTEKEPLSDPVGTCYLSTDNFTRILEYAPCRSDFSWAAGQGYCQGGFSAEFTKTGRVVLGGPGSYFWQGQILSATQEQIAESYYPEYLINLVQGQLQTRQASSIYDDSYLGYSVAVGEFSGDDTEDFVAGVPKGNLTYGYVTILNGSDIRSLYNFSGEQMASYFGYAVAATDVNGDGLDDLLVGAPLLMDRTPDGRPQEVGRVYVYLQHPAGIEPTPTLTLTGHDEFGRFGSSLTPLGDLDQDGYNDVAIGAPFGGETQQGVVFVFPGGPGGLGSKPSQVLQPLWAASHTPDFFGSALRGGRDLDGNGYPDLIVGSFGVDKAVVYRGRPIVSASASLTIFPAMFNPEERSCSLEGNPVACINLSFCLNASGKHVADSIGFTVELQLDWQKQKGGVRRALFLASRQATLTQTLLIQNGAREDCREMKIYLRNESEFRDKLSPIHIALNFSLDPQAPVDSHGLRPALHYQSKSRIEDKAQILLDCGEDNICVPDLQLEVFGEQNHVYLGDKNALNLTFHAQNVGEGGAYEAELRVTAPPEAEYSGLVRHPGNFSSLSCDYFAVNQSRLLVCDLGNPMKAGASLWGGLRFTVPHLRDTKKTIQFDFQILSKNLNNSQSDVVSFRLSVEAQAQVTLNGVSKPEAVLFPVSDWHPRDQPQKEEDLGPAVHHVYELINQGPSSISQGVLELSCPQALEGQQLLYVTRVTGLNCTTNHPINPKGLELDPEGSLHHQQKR
T1 sequence (P08648 895-1049 limits assumed): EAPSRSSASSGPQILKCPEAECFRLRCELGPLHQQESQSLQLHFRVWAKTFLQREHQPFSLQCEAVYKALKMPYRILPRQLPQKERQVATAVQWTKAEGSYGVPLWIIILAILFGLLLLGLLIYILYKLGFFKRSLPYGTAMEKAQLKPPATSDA
T1 sequence (P05556 21-798): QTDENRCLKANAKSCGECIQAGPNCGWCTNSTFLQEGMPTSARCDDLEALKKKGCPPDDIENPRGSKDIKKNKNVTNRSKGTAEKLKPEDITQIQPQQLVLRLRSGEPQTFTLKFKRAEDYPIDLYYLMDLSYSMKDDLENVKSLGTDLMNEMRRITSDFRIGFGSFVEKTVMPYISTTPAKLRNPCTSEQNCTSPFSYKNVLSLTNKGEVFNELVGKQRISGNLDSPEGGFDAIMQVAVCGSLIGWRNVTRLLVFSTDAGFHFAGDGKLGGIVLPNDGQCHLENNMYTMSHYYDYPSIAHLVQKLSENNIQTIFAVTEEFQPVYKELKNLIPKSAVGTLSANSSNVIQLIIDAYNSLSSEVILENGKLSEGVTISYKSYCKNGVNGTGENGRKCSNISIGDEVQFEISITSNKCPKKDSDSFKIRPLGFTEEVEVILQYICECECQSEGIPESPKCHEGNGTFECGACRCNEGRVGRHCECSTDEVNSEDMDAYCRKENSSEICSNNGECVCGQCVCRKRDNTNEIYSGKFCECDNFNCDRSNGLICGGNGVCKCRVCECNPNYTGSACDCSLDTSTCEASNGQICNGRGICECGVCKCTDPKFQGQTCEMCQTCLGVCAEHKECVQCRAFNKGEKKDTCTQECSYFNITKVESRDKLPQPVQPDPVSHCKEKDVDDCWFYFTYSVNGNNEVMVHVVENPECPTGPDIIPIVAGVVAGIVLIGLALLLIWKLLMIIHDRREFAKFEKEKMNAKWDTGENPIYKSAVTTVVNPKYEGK
In words: Duolink protein interaction analysis of α5 and β1 integrin in MEC monolayers. The format is cell-based. The settings on record: 100 μM AXT107 compared to vehicle. On the procedure:
Additionally, changes in the interaction between the α5 and β1 subunits were further investigated using Duolink™ technology which can visualize individual interactions between α5 and β1 integrin subunits as distinct spots by fluorescence microscopy.
Glass bottom, 96-well plates were coated with FN1, seeded with MECs, as described above for the immunofluorescence experiments. After growing for forty-eight hours, cells were serum starved for three hours, treated with 100 μM AXT107 or DMSO vehicle for ninety minutes, washed twice with dPBS containing Ca^2+ and Mg^2+, and fixed in 10% neutral buffered formalin. Cells were blocked in 5% normal goat serum; 0.3% Triton X-100 in dPBS containing Ca^2+ and Mg^2+ for one hour and incubated overnight at 4° C. with rabbit anti-α5 integrin and mouse anti-β1 integrin antibodies in PBS containing Ca^2+ and Mg^2+ with 1% BSA and 0.1% Triton X-100. Interaction spots were developed using DUOLINK green detection reagent according to the manufacturer's instructions and detected using the BD pathway 855 system.

Results on one sequence are retold here after patent US11674959B2, “Methods for identifying and preparing pharmaceutical agents for activating Tie1 and/or Tie2 receptors” (The Johns Hopkins University, priority 2017, dated 2023).

Consider LRRFSTAPFAFIDINDVINF [AXT107], for which, in the assay on MEC monolayers, the Actin fiber arrangement result is “became more cortical with increasing concentrations of AXT107” and the “Distribution of VE-cadherin at junctions” value is “became progressively smoother with increasing concentrations of AXT107”. Further, the Akt phosphorylation entry with Akt is on record as “also increased”. In the assay on phospho-Tie2 (Y992), the “phospho-Tie2 fluorescence intensity and distribution” value is “increased overall fluorescence intensity and redistributed phospho-Tie2 along cell-cell junctions and into large clusters”. Further, the “Interactions between α5 and β1 integrin subunits (Duolink)” value in assay [1] is listed as “significantly reduced”.
